In patent US20090221666A1, “STILBENE DERIVATIVES AND METHODS OF INHIBITING CANCER CELL GROWTH AND MICROBIAL GROWTH” (priority 2005, published 2009):
Converted amounts (≈) assume the structure as drawn. Counter-ions that a name gives are not always drawn. Like-named read-outs stand apart in the source and are kept apart here.

Key:
[1] = system: Neisseria gonorrhoeae ATCC 49226; experiment: Broth microdilution assay, Neisseria gonorrhoeae; format: cell-based
Description: (§1) Compounds were screened in broth microdilution assays according to National Committee for Clinical Laboratory Standards (Ref. 43-44). Assays were repeated at least twice on separate days.

[2] = system: P388 lymphocytic leukemia cell line; format: cell-based; settings: murine P388 lymphocytic leukemia cell line
Procedure: (§2) Cytotoxicity assays were performed by the sulforhodamine B method, in which inhibition of formation of cellular protein is measured (Ref. 42). The mitotic index of MCF-7 breast cancer cells was determined as described previously (Ref. 27), except that cells were incubated in the presence of drug for 16 h prior to addition of the DNA stain.

[3] = Solubility in distilled water; format: physicochemical; settings: for Solubility / solubility: 1 mL distilled water at 25° C.
MCF-7 = experiment: cells; format: cell-based, human; settings: for GI50: Homo sapiens, MCF7, read-out: Breast MCF-7 GI50
Procedure: as §2

KM20L2 = experiment: cells; format: cell-based, human; settings: for GI50: Homo sapiens, KM-20L2, read-out: Colon KM20L2 GI50
Procedure: as §2

DU145 = experiment: cells; format: cell-based, human; settings: for GI50: Homo sapiens, DU-145, read-out: Prostate DU145 GI50
Procedure: as §2

SF-295 = experiment: cells; format: cell-based, human; settings: for GI50: Homo sapiens, read-out: CNS SF-295 GI50
Procedure: as §2

NCI-H460 = experiment: cells; format: cell-based, human; settings: for GI50: Homo sapiens, read-out: Lung-NSC NCI-H460 GI50
Procedure: as §2

[4] = system: human cancer cell lines and murine P388; experiment: cells; format: cell-based; settings: for IC50: Mus musculus
Procedure: as §2

BXPC-3 = experiment: cells; format: cell-based, human; settings: for GI50: Homo sapiens, read-out: Pancreas BXPC-3 GI50
Procedure: as §2

[5] = system: Cryptococcus neoformans ATCC 90112; experiment: Broth microdilution assay, Cryptococcus neoformans; format: cell-based; settings: ATCC90112
Description: as §1

[6] = system: Bovine brain tubulin (colchicine site); experiment: Inhibition of [3H]colchicine binding to tubulin; settings: 1.0 μM tubulin, 5.0 μM [3H]colchicine
Procedure: (§3) Bovine brain tubulin was prepared and the tubulin assembly and colchicine binding assays were performed as described previously. In the assembly assay, reaction mixtures contained 1.0 mg/mL (10 μM) tubulin and varying concentrations of potential inhibitors. In the colchicine binding assay reaction mixtures contained 0.1 mg/mL (1.0 μM) tubulin, 5.0 μM [^3H]colchicine, and potential inhibitor as indicated. The vinblastine binding assay was performed as described previously for GTP binding by centrifugal gel filtration, except that a Beckman Allegra 6KR centrifuge equipped with a GH-3.8A swinging bucket rotor was used and the syringe-columns were centrifuged at 2,000 rpm (Ref. 38-41). Reaction mixtures contained 0.5 mg/mL (5.0 μM) tubulin, 5 μM [^3H]vinblastine, potential inhibitor as indicated, 0.5 mM MgCl2, 0.1 M 4-morpholineethanesulfonate (1.0 M stock solution adjusted to pH 6.9 with NaOH, and 4% (v/v) dimethyl sulfoxide. Incubation (30 min) and centrifugal gel filtration were performed at room temperature (20-22° C.).

[7] = system: Bovine brain tubulin (vinca domain); experiment: Inhibition of [3H]vinblastine binding to tubulin; settings: 5.0 μM tubulin, 5 μM [3H]vinblastine
Procedure: as §3

Bovine brain tubulin = experiment: Inhibition of tubulin assembly; format: biochemical; settings: 1.0 mg/mL (10 μM) tubulin; read-out: Inhibition of tubulin assembly IC50 (μM) ± SD
Procedure: as §3

[8] = system: Enterococcus faecalis ATCC 29212; experiment: Broth microdilution assay, Enterococcus faecalis; format: cell-based
Description: as §1

[9] = system: Streptococcus pneumoniae ATCC 6303; experiment: Broth microdilution assay, Streptococcus pneumoniae; format: cell-based; settings: ATCC6303
Description: as §1

[10] = P388, mean over the cell lines of Table 2, read-out: Mean

Sodium 3,4-methylenedioxy-5,4′-dimethoxy-3′-(L-Tyr)-amido-Z-stilbene 3′-O,N^α-diphosphate [Compound 6]
MIC [1]: 4 µg/mL | Leukemia P388 ED50 [2]: 0.270 µg/mL | Solubility [3]: <100 µg/mL | water solubility (in words) [3]: only sparing water solubility | Breast MCF-7 GI50 (MCF-7): 1.3 µg/mL | Colon KM20L2 GI50 (KM20L2): >1 µg/mL | Prostate DU145 GI50 (DU145): >1 µg/mL | CNS SF-295 GI50 (SF-295): >1 µg/mL | Lung-NSC NCI-H460 GI50 (NCI-H460): >1 µg/mL

COc1ccc(/C=C\c2cc(OC)c3c(c2)OCO3)cc1NC(=O)[C@H](CC(=O)OC(C)(C)C)NC(=O)OC(C)(C)C [Compound 10, 3,4-Methylenedioxy-5,4′-dimethoxy-3′-(O^β-tert-butyl-N^α-Boc-L-Asp)-amido-Z-stilbene]
IC50 [4, 10]: 2.4 µg/mL (≈ 4.21 µM) | Leukemia P388 ED50 [2]: 0.385 µg/mL | GI50 (MCF-7): 2.4 µg/mL (≈ 4.21 µM) | GI50 (BXPC-3): 3.4 µg/mL (≈ 5.96 µM) | GI50 (KM20L2): 2.3 µg/mL (≈ 4.03 µM) | GI50 (DU145): 3 µg/mL (≈ 5.26 µM) | GI50 (SF-295): 1.7 µg/mL (≈ 2.98 µM) | GI50 (NCI-H460): 3.8 µg/mL (≈ 6.66 µM)

COc1ccc(/C=C\c2cc(OC)c3c(c2)OCO3)cc1N [Compound 1a, 3,4-Methylenedioxy-5,4^1-Dimethoxy-3^1-Amino-Z-Stilbene, reference compound]
IC50 ([4]; P388, read-out: Mean): 0.013 µg/mL (≈ 0.0434 µM)

COc1ccc(/C=C\c2cc(OC)c3c(c2)OCO3)cc1NC(=O)[C@H](Cc1ccc(OC(C)(C)C)cc1)NC(=O)OCc1ccccc1 [Compound 7, 3,4-Methylenedioxy-5,4′-dimethoxy-3′-(O-tert-butyl-N^α-Z-L-Tyr)-amido-Z-stilbene]
Mean ([4]; mean over the cell lines of Table 2): 0.61 µg/mL | Leukemia P388 ED50 [2]: 0.380 µg/mL | Breast MCF-7 GI50 (MCF-7): 0.36 µg/mL | Pancreas BXPC-3 GI50 (BXPC-3): 0.049 µg/mL | Colon KM20L2 GI50 (KM20L2): 1.8 µg/mL | Prostate DU145 GI50 (DU145): 0.39 µg/mL | CNS SF-295 GI50 (SF-295): 0.44 µg/mL | Lung-NSC NCI-H460 GI50 (NCI-H460): 0.41 µg/mL

COc1ccc(/C=C\c2cc(OC)c3c(c2)OCO3)cc1NC(=O)[C@H](C)[C@@H](OC)[C@@H]1CCCN1C(=O)OC(C)(C)C [Compound 13, 3,4-Methylenedioxy-5,4′-dimethoxy-3′-(N^α-Boc-L-Dap)-amido-Z-stilbene]
IC50 [4, 10]: 0.7 µg/mL (≈ 1.23 µM) | Leukemia P388 ED50 [2]: 0.225 µg/mL | GI50 (MCF-7): 0.53 µg/mL (≈ 0.932 µM) | GI50 (BXPC-3): 0.58 µg/mL (≈ 1.02 µM) | GI50 (KM20L2): 1.9 µg/mL (≈ 3.34 µM) | GI50 (DU145): 0.38 µg/mL (≈ 0.668 µM) | GI50 (SF-295): 0.75 µg/mL (≈ 1.32 µM) | GI50 (NCI-H460): 0.52 µg/mL (≈ 0.914 µM) | MIC [5]: 64 µg/mL (≈ 113 µM)

CC[C@H](C)[C@@H]([C@@H](CC(=O)N1CCC[C@H]1[C@H](OC)[C@@H](C)C(=O)N[C@@H](Cc1ccccc1)c1nccs1)OC)N(C)C(=O)[C@@H](NC(=O)[C@H](C(C)C)N(C)C)C(C)C [Compound 4a, Dolastatin 10]
Inhibition of colchicine binding % Inhibition ± SD ([6]; 2 μM inhibitor): 13 ± 5% | Inhibition of vinblastine binding % Inhibition ± SD ([7]; 10 μM inhibitor): 96 ± 0.7%

COc1ccc(/C=C\c2cc(OC)c3c(c2)OCO3)cc1NC(=O)[C@H](Cc1ccc(OP(=O)(OCc2ccccc2)OCc2ccccc2)cc1)NP(=O)(OCc1ccccc1)OCc1ccccc1 [Compound 5, 3,4-Methylenedioxy-5,4′-dimethoxy-3′-[O,N^α-di(bis-benzylphosphoryl)-L-Tyr]-amido-Z-stilbene]
Leukemia P388 ED50 [2]: >10 µg/mL

CC[C@H](C)[C@@H]([C@@H](CC(=O)N1CCC[C@H]1[C@H](OC)[C@@H](C)C(=O)O)OC)N(C)C(=O)[C@@H](NC(=O)[C@H](C(C)C)N(C)C)C(C)C [Compound 4b, Dov-Val-Dil-Dap]
Inhibition of colchicine binding % Inhibition ± SD ([6]; 50 μM inhibitor): 5.2 ± 3% | Inhibition of vinblastine binding % Inhibition ± SD ([7]; 10 μM inhibitor): 16 ± 6% | Inhibition of vinblastine binding % Inhibition ± SD ([7]; 80 μM inhibitor): 68 ± 0.4%

COc1ccc(C=Cc2cc(OC)c(OC)c(OC)c2)cc1O [Compound 2g, combretastatin A-4]
Inhibition of colchicine binding % Inhibition ± SD ([6]; 2 μM inhibitor): 98 ± 0.4% | Inhibition of vinblastine binding % Inhibition ± SD ([7]; 10 μM inhibitor): 0% | Inhibition of vinblastine binding % Inhibition ± SD ([7]; 80 μM inhibitor): 0% | IC50 (Bovine brain tubulin): […]

COc1ccc(/C=C\c2cc(OC)c3c(c2)OCO3)cc1NC(=O)[C@@H](N)Cc1ccc(OP(=O)(O)O)cc1 [Compound 3a, 3,4-Methylenedioxy-5,4′-dimethoxy-3′-(O-phosphoryl-N^α-L-Tyr)-amido-Z-stilbene]
MIC [1]: 0.125 µg/mL (≈ 0.23 µM) | Leukemia P388 ED50 [2]: >10 µg/mL | MIC [8]: 64 µg/mL (≈ 118 µM) | Solubility [3]: <100 µg/mL | water solubility (in words) [3]: only sparing water solubility | Breast MCF-7 GI50 (MCF-7): >1 µg/mL | Pancreas BXPC-3 GI50 (BXPC-3): >1 µg/mL | Colon KM20L2 GI50 (KM20L2): >1 µg/mL | Prostate DU145 GI50 (DU145): >1 µg/mL | CNS SF-295 GI50 (SF-295): >1 µg/mL | Lung-NSC NCI-H460 GI50 (NCI-H460): >1 µg/mL

COc1ccc(/C=C\c2cc(OC)c3c(c2)OCO3)cc1NC(=O)[C@@H](N)Cc1ccc(O)cc1.Cl [Compound 9, 3,4-Methylenedioxy-5,4′-dimethoxy-3′-(N^α-L-Tyr)-amido-Z-stilbene hydrochloride]
IC50 [4, 10]: 0.059 µg/mL | inhibition of mini-panel of human cancer cell lines (in words) [4]: strongly inhibiting | Leukemia P388 ED50 [2]: 0.0329 µg/mL | solubility [3]: < 100 µg/mL | Solubility ([3]; hydrochloride): <100 µg/mL | water solubility (in words) [3]: only sparing water solubility | GI50 (MCF-7): 0.041 µg/mL | GI50 (BXPC-3): 0.064 µg/mL | GI50 (KM20L2): 0.034 µg/mL | GI50 (DU145): 0.08 µg/mL | GI50 (SF-295): 0.064 µg/mL | GI50 (NCI-H460): 0.096 µg/mL | melting point: 169 to 170.5 °C

COc1ccc(/C=C\c2cc(OC)c3c(c2)OCO3)cc1NC(=O)[C@H](C)[C@@H](OC)[C@@H]1CCCN1 [Compound 14, 3,4-Methylenedioxy-5,4′-dimethoxy-3′-(N^α-L-Dap)-amido-Z-stilbene TFA salt]
MIC ([1]; ATCC49226, read-out: MIC): 16 µg/mL | IC50 [4, 10]: 0.11 µg/mL | inhibition of mini-panel of human cancer cell lines (in words) [4]: strongly inhibiting | Leukemia P388 ED50 [2]: 0.0263 µg/mL | MIC ([8]; ATCC29212, read-out: MIC): 32 to 64 µg/mL | GI50 (MCF-7): 0.054 µg/mL | GI50 (BXPC-3): 0.23 µg/mL | GI50 (KM20L2): 0.26 µg/mL | GI50 (DU145): 0.07 µg/mL | GI50 (SF-295): 0.062 µg/mL | GI50 (NCI-H460): 0.083 µg/mL | MIC [5]: 64 µg/mL | MIC [9]: 8 to 16 µg/mL

COc1ccc(/C=C\c2cc(OC)c3c(c2)OCO3)cc1NC(=O)[C@@H](N)CC(=O)[O-].[Na+] [Compound 11, Sodium 3,4-methylenedioxy-5,4′-dimethoxy-3′-(N^α-L-Asp)-amido-Z-stilbene]
IC50 [4, 10]: 0.33 µg/mL | Leukemia P388 ED50 [2]: 0.361 µg/mL | Solubility [3]: <100 µg/mL | solubility [3]: < 100 µg/mL | water solubility (in words) [3]: only sparing water solubility | GI50 (MCF-7): 0.51 µg/mL | GI50 (BXPC-3): 0.38 µg/mL | GI50 (KM20L2): 0.19 µg/mL | GI50 (DU145): 0.33 µg/mL | GI50 (SF-295): 0.25 µg/mL | GI50 (NCI-H460): 0.3 µg/mL | melting point: 168 to 170 °C

COc1ccc(/C=C\c2cc(OC)c3c(c2)OCO3)cc1NC(=O)[C@H](Cc1ccc(OP(=O)(OCc2ccccc2)OCc2ccccc2)cc1)NC(=O)OCc1ccccc1 [Compound 8, 3,4-Methylenedioxy-5,4′-dimethoxy-3′-(O-bis-benzylphosphoryl-N^α-Z-L-Tyr)-amido-Z-stilbene]
Leukemia P388 ED50 [2]: 0.133 µg/mL | MIC [8]: 64 µg/mL (≈ 74.7 µM) | Breast MCF-7 GI50 (MCF-7): >10 µg/mL | Pancreas BXPC-3 GI50 (BXPC-3): >10 µg/mL | Colon KM20L2 GI50 (KM20L2): >10 µg/mL | Prostate DU145 GI50 (DU145): >10 µg/mL | CNS SF-295 GI50 (SF-295): >10 µg/mL | Lung-NSC NCI-H460 GI50 (NCI-H460): >10 µg/mL

COc1ccc(C=Cc2cc(OC)c3c(c2)OCO3)cc1N [Compound 1b]
Inhibition of colchicine binding % Inhibition ± SD ([6]; 2 μM inhibitor): 85 ± 3% | Inhibition of vinblastine binding % Inhibition ± SD ([7]; 10 μM inhibitor): 0% | Inhibition of vinblastine binding % Inhibition ± SD ([7]; 80 μM inhibitor): 0%
